Measurements reported in ChEMBL document CHEMBL1147540, “Design, synthesis, and SAR of 2-dialkylamino-4-arylpyrimidines as potent and selective corticotropin-releasing factor(1) (CRF(1)) receptor antagonists” (Bioorg Med Chem Lett, 2004).

How the values were obtained:
[1] = target: T1, Corticotropin-releasing factor receptor 1 (Homo sapiens, UniProt P34998); test: biochemical; assay type: cell-based, CHO
T1 sequence (P34998 whole entry): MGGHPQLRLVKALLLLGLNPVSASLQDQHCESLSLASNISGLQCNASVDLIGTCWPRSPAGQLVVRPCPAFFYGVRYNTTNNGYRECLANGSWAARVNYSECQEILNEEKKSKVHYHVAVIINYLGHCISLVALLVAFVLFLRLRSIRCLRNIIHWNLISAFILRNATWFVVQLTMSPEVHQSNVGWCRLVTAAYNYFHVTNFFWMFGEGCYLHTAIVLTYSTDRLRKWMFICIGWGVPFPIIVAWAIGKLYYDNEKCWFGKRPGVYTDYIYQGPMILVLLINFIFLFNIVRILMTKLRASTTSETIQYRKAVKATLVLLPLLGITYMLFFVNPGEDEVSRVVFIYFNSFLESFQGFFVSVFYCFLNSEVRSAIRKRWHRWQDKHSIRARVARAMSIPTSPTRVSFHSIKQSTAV

[2] = target: T2, Corticotropin-releasing factor receptor 2 (Homo sapiens, UniProt Q13324); test: Binding affinity towards human Corticotropin releasing factor receptor 2 by the displacement of [125I]CRF from CHO cells; IA means Inactive; assay type: cell-based
T2 sequence (Q13324 whole entry): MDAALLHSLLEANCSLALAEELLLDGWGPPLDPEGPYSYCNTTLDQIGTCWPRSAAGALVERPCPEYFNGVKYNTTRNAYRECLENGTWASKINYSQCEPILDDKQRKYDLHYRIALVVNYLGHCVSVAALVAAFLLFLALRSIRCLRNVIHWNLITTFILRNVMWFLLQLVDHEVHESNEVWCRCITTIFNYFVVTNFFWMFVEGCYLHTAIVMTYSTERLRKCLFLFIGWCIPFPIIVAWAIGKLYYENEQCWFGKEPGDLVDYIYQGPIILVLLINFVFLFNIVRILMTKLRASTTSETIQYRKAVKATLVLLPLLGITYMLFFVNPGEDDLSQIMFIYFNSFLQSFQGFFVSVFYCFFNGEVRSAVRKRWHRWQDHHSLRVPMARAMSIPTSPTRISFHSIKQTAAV

[3] = target: T1, Corticotropin-releasing factor receptor 1; test: Effective dose against CRF stimulated cAMP production in CHO cells expressing human Corticotropin releasing factor receptor 1; assay type: functional, cell-based
[4] = target: T1, Corticotropin-releasing factor receptor 1; test: Effective dose against human Corticotropin releasing factor receptor 1 stimulated ACTH release from primary rat anterior pituitary cell cultures; assay type: functional, cell-based, Pituitary gland cell
[5] = target: T1, Corticotropin-releasing factor receptor 1; test: Binding affinity towards human Corticotropin releasing factor receptor 1 by the displacement of [125I]CRF from CHO cells; IA means Inactive; assay type: cell-based

Row | Compound | Ki [1] | further results
1 | CCCN(c1nccc(-c2c(OC)cc(OC)cc2OC)n1)C1(c2ccoc2)CC1 | 700 nM | 
2 | CCCN(c1ncc(C)c(-c2ccc(Br)cc2C)n1)C(C1CC1)C1CC1 | 63 nM | 
3 | CCCN(c1nccc(-c2c(OC)cc(OC)cc2OC)n1)C1(c2cccs2)CC1 | 250 nM | 
4 | CCCN(c1nccc(-c2c(OC)cc(OC)cc2OC)n1)c1cccc2ccccc12 |  | Ki [5]: Not Active
5 | COc1cc(OC)c(-c2ccnc(NC(C3CC3)C3CC3)n2)c(OC)c1 |  | Ki [5]: Not Active
6 | CCCN(c1ncc(C(=O)OC)c(-c2ccc(OC)cc2OC)n1)C(C1CC1)C1CC1 |  | Ki [5]: Not Active
7 | CCCN(c1nc(C)c(C)c(-c2ccc(Br)cc2)n1)C(C1CC1)C1CC1 |  | Ki [5]: Not Active
8 | CCCN(c1ncc(C)c(-c2ccc(Br)cc2)n1)C(C1CC1)C1CC1 | 49 nM | 
9 | COc1cc(OC)c(-c2ccnc(N)n2)c(OC)c1 |  | Ki [5]: Not Active

Second part, led by results:

Row | Ki [1] | Compound | further results
10 | 460 nM | CCCN(c1nccc(-c2ccc(OC)cc2OC)n1)C(C1CC1)C1CC1 | 
11 | 15 nM | CCCN(c1nccc(-c2c(OC)cc(OC)cc2OC)n1)C(C1CC1)C1CC1 | Ki [2]: Not Active; EC50 [3]: 990 nM; EC50 [4]: 970 nM
12 | 100 nM | C=CCN(c1nccc(-c2c(OC)cc(OC)cc2OC)n1)C(C1CC1)C1CC1 | 
13 | 860 nM | CCCN(c1ncc(CC)c(-c2ccc(OC)cc2OC)n1)C(C1CC1)C1CC1 | 
14 | 63 nM | CCCN(c1nccc(-c2c(F)cc(OC)cc2OC)n1)C(C1CC1)C1CC1 | 
15 | 11 nM | CCCN(c1nccc(-c2c(Cl)cc(OC)cc2OC)n1)C(C1CC1)C1CC1 | Ki [2]: Not Active; EC50 [3]: 1600 nM; EC50 [4]: 1100 nM
16 | 19 nM | CCCN(c1ncc(C)c(-c2ccc(OC)cc2OC)n1)C(C1CC1)C1CC1 | 
17 | 240 nM | CCCN(c1nccc(-c2c(OC)cc(OC)cc2OC)n1)[C@@H](c1ccccc1)C1CC1 | 
18 | 15 nM | CCCN(c1ncc(C)c(-c2c(OC)cc(OC)cc2OC)n1)C(C1CC1)C1CC1 | 
